Here are results for two compounds from publication PMC7271948, “A baculoviral system for the production of human β-glucocerebrosidase enables atomic resolution analysis” (Acta Crystallographica. Section D, Structural Biology, 2020).

For orientation: IC50 means the concentration at which inhibition is half-maximal.

The target in test [1] is T1, β-glucocerebrosidase (GBA) (Homo sapiens, UniProt P04062).
T1 construct: gene GBA1
T1 sequence (P04062 40-536): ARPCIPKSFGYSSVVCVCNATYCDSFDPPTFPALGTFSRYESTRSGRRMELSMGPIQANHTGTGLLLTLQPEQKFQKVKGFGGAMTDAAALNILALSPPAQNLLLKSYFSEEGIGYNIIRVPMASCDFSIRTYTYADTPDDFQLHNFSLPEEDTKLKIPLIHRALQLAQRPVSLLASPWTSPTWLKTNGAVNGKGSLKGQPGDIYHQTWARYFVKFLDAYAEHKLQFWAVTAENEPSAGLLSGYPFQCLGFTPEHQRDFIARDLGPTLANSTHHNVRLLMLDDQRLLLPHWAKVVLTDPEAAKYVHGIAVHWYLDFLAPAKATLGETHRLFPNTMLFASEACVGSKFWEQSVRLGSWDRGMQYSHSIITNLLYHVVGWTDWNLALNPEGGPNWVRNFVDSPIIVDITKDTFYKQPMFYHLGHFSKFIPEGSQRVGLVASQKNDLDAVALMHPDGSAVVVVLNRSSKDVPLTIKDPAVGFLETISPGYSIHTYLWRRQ
Briefly: X-ray crystal structure at […] Å, crystals soaked with 2F-DNPGlc. Type of test: binding.

Test [2] concerns the target T1, β-glucocerebrosidase (GBA). Briefly: X-ray crystal structure at […] Å; IC50 against 4-MU-Glc hydrolysis at pH […]. Type of test: biochemical.

Structures are written as SMILES.

For `O=[N+]([O-])c1ccc(O[C@@H]2O[C@H](CO)[C@@H](O)[C@H](O)[C@H]2F)c([N+](=O)[O-])c1` [2F-DNPGlc, 2,4-dinitrophenyl-2-deoxy-2-fluoro-β-D-glucopyranoside], the “X-ray crystal structure at 1.41 Å, crystals soaked with 2F-DNPGlc” value in test [1] is on record as “showing unambiguous electron density for covalent binding of the 2-deoxy-2-fluoroglucose moiety to the catalytic nucleophile”. The compound `OCC(CO)(CO)NCCCNC(CO)(CO)CO` [BTP, bis-Tris propane] gave an IC50 in test [2] of 4.31 ± 0.42 mM.
